Values quoted from earlier work, collected in patent US20070010584A1, “Compositions and methods for orthostatic intolerance” (priority 2003, published 2007).
Read-outs that look alike come from different tables or passages of the source.

What was measured:
[1] = tested on: patients with OI and orthostatic tachycardia; details: in vivo
[2] = in vivo
[3] = clonidine 0.1 mg PO, 13 patients with OI

N[C@H](C(=O)O)[C@H](O)c1ccc(O)c(O)c1 [DOPS, Threo-3-(3,4-dihydroxyphenyl)serine]
time of peak NE levels (after ingestion of DOPS): about 5 hours
duration of increased plasma levels of DOPS and NE (after oral administration of DOPS): at least 12 hours
time of peak plasma levels of DOPS (after oral ingestion): about 3 hours

Clc1cccc(Cl)c1N=C1NCCN1 [clonidine]
tolerability in OI patients (patients with OI; clonidine 0.1 mg PO): tolerate clonidine poorly
blood pressure (patients with OI; [3]): significantly decreased blood pressure
supine and standing heart rate (patients with OI; [3]): decreased both supine and standing heart rate

CC(C)NCC(O)COc1cccc2ccccc12 (stereo not drawn) [Propranolol]
efficacy in OI and orthostatic tachycardia [1]: effective in a number of patients

COc1ccc(OC)c(C(O)CNC(=O)CN)c1 (stereo not drawn) [Midodrine]
supine and standing heart rate (patients with OI; midodrine 5-10 mg PO, 13 patients with OI): decreased both supine and standing heart rate
half-life [2]: 30 min
